Experiment: mn = molality of the nth substance listed, in mol/kg
Conditions: 100 kPa, Liquid; for speed of sound: Frequency=3 MHz, Sing-around technique in a fixed-path interferometer; for mass density: Vibrating tube method

O=C(CO)[C@@H](O)[C@H](O)[C@H](O)CO [D-fructose] + O
Conditions | mass density, 288.15 K [kg/m3] | mass density, 293.15 K [kg/m3] | mass density, 298.15 K [kg/m3] | mass density, 303.15 K [kg/m3] | mass density, 308.15 K [kg/m3] | speed of sound, 288.15 K [m/s] | speed of sound, 298.15 K [m/s] | speed of sound, 303.15 K [m/s] | speed of sound, 308.15 K [m/s]
m1 = 0.05 | 1003.31 | 1002.37 | 1001 | 999.53 | 998.08 | – | – | 1512.2 | –
m1 = 0.15 | – | 1009.21 | – | – | 1004.78 | – | – | 1518.1 | –
m1 = 0.25 | 1017.01 | 1015.91 | 1014.56 | 1013.07 | – | 1484.3 | 1513 | – | 1534.2
m1 = 0.35 | 1023.52 | 1022.43 | 1021.07 | 1019.48 | 1017.69 | 1491.3 | 1519.1 | 1530.3 | 1539.9
